Experimental data as given in ChEMBL document CHEMBL2151022, “Combatting Drug-Resistant Bacteria with Gyrase and Topoisomerase IV Inhibitors: Patent Highlight” (ACS Med Chem Lett, 2012).

Target: DNA gyrase subunit B (Staphylococcus aureus, UniProt P0A0K8)
Test: Inhibition of Staphylococcus aureus DNA gyrase Gyr B subunit by ATPase assay

DNA gyrase subunit B, sequence (P0A0K8 whole entry): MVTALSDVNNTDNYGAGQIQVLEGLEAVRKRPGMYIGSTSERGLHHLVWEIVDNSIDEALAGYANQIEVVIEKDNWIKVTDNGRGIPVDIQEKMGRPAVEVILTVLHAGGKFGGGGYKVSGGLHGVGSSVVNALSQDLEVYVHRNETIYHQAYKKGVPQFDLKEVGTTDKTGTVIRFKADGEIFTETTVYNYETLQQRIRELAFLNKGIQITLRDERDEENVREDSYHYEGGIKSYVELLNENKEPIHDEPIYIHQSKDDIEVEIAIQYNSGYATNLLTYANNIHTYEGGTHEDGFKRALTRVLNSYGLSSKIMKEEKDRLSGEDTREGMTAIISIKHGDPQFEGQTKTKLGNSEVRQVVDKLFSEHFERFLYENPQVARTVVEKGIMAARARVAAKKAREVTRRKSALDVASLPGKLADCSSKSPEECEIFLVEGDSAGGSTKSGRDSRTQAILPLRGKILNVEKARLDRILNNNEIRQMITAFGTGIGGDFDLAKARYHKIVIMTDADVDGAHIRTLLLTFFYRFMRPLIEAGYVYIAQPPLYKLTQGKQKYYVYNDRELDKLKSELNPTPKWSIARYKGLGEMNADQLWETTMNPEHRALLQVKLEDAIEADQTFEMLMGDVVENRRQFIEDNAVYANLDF

Which Ki does the source give for CCNC(=O)Nc1nc2cc(-c3cnc(C(C)(C)OP(=O)(O)O)nc3)c(F)c([C@H]3CCCO3)c2[nH]1 here?
The Ki was less than 9 nM.
